≈ marks a conversion by molar mass, not a printed value. Where “and” joins values, the source holds several entries; their conditions need not be identical. Equal entries are not always repeated.
Tests used:
[1] = Visual solubility of Form B crystal in common solvents at RT; format: physicochemical; details: organic solvent or mixture, thermodynamic from solid, visually estimated
Description: The solubility was visually estimated in 12 common solvents at RT.

[2] = Comparative solubility in Milli-Q purified water (HPLC); details: for pH: water, 24 hr
Description: (§1) Using the stock solution, a dilution series for the purpose of HPLC quantitation was generated according to the following Table 8.
First, a quantity of test sample was placed in a 2-dram vial equipped with stir bar. […] In the second step, Milli-Q water was added to the vial under stirring followed by measuring the pH of the resulting suspension/solution. […] In each case, the sample was filtered through a 0.2 μm filter. The resulting solution was appropriately diluted to fall within the calibrated concentration range on HPLC. The sampling was repeated in identical fashion after 3 hr and 24 hr. After the last sample was taken, the pH was recorded again. The dissolved sample was determined by converting the recorded area on HPLC to concentration in mg/mL using the established calibration equation.

[3] = Comparative solubility in aqueous buffers (HPLC); format: physicochemical
Description: as §1
Next, the second step of this modified procedure involved adding a buffer (5 mL) to the vial under stirring followed by measuring the pH of the resulting suspension. In case the pH drifted by more than 0.1 unit from the target pH, 10 μL aliquots of 1M NaOH (aq.) were used to readjust the pH to the original value. […] As above in 9.2, the samples were filtered through a 0.2 μm filter, and the resulting solution was appropriately diluted to fall within the calibrated concentration range on HPLC. The sampling was repeated in an identical fashion after 3 hr and 24 hr and after the last sample was taken, the pH was recorded again. The dissolved sample was determined by converting the recorded area on HPLC to concentration in mg/mL using the established calibration equation.

[4] = Comparative grinding study (XRPD pre- and post-grinding); format: physicochemical; details: 40 mg ground at 30 Hz for 30 min with steel ball bearing
Description: The samples were each ground at 30 Hz for 30 min, then reanalyzed by XRPD.

[5] = Solubility of methyl paraben co-crystal in pH 4.5 and 6.8 buffer (HPLC); format: physicochemical
Description: The sample was suspended in 1.5 mL media for a maximum anticipated concentration of Ca. […] The resulting suspensions were then shaken at 25° C./750 rpm for 24 hr. After 1 hr, 3 hr and 24 hr of equilibration, 0.5 mL of sample was aliquoted, the appearance was noted, and the pH of the saturated solution was measured. Samples were then centrifuged at 13,400 rpm for 2 min. Supernatant was used for HPLC analysis. Samples suspended in pH 4.5 buffer were diluted 1:1 (1- and 3-hr samples) and 1:8 (24 hr samples) with pH 4.5 buffer. Samples suspended in pH 6.8 buffer were analyzed undiluted. […] Different volumes of the standard diluted and undiluted sample solutions were injected.

[6] = Hygroscopicity (GVS analysis) and solid-state properties of methyl paraben co-crystal; format: physicochemical
Description: The co-crystal is also readily prepared from anti-solvent addition and generates a good yield.

[7] = Compression study (XRPD pre- and post-compression); format: physicochemical; details: 6 mm recess disc, 100 kg of pressure for 2 min
Description: The methyl paraben co-crystalline form of Compound (I) after drying in a vacuum oven was compressed into a 6 mm recess disc under 100 kg of pressure for 2 min.

[8] = Static storage analysis (XRPD pre- and post-storage); format: physicochemical; details: stored for one week at 25° C. and 40° C.
Description: Samples of methyl paraben co-crystalline form of Compound (I) (Example 10), after drying in a vacuum oven were stored for one week at 25° C. and 40° C.

[9] = pH 4.5 buffer, 1 hour, 25° C., single sample

SMILES: CC(C)(C=C(C#N)C(=O)N1CCCC(n2nc(-c3ccc(Oc4ccccc4)cc3F)c3c(N)ncnc32)C1)N1CCN(C2COC2)CC1 (centres unmarked) [Compound (I) Form B, 2-[3-[4-amino-3-(2-fluoro-4-phenoxy-phenyl)pyrazolo[3,4-d]pyrimidin-1-yl]piperidine-1-carbonyl]-4-methyl-4-[4-(oxetan-3-yl)piperazin-1-yl]pent-2-enenitrile]
- solubility at 15 min ([1]; 4-Methyl-2-pentanone (MIBK)): 20 to 100 mg/mL (≈ 30 to 150 mM)
- solubility at 15 min ([1]; Acetone): > 100 mg/mL
- solubility at 15 min ([1]; Acetonitrile (MeCN)): 20 to 100 mg/mL (≈ 30 to 150 mM)
- solubility at 15 min ([1]; Cyclohexane): < 20 mg/mL
- solubility at 15 min ([1]; Cyclohexanone): 20 to 100 mg/mL (≈ 30 to 150 mM)
- solubility at 15 min ([1]; Dichloromethane (DCM)): > 100 mg/mL
- solubility at 15 min ([1]; Dimethyl carbonate (DMC)): 20 to 100 mg/mL (≈ 30 to 150 mM)
- solubility at 15 min ([1]; Ethyl acetate (EtOAc)): 20 to 100 mg/mL (≈ 30 to 150 mM)
- solubility at 15 min ([1]; Isopropyl ether (IPE)): < 20 mg/mL
- solubility at 15 min ([1]; Tetrahydrofuran (THF)): > 100 mg/mL
- solubility at 15 min ([1]; Toluene): < 20 mg/mL
- solubility at 15 min ([1]; t-Butyl Methyl Ether (MTBE)): < 20 mg/mL
- pH [2]: 7.8
- pH ([3]; 50 mM Acetate, 0 hr): 4.5
- pH ([3]; 50 mM Acetate, 24 hr): 4.5
- solubility at 1 h ([3]; 50 mM acetate buffer, pH 4.5, aqueous buffer, thermodynamic from solid, 50 mM Acetate, 1 hr): 1.7 mg/mL (≈ 2.55 mM)
- solid form after grinding (XRPD) ([4]; listed as Form B crystalline form of Compound (I)): became amorphous after grinding

SMILES: CC(C)(C=C(C#N)C(=O)N1CCCC(n2nc(-c3ccc(Oc4ccccc4)cc3F)c3c(N)ncnc32)C1)N1CCN(C2COC2)CC1 (centres unmarked) [Compound (I) amorphous, 2-[3-[4-amino-3-(2-fluoro-4-phenoxy-phenyl)pyrazolo[3,4-d]pyrimidin-1-yl]piperidine-1-carbonyl]-4-methyl-4-[4-(oxetan-3-yl)piperazin-1-yl]pent-2-enenitrile]
- pH [2]: 8.3
- pH ([3]; 50 mM Acetate, 0 hr): 4.5
- pH ([3]; 50 mM Acetate, 24 hr): 4.5

SMILES: CC(C)(C=C(C#N)C(=O)N1CCCC(n2nc(-c3ccc(Oc4ccccc4)cc3F)c3c(N)ncnc32)C1)N1CCN(C2COC2)CC1.Cl (centres unmarked) [HCl salt, 2-[3-[4-amino-3-(2-fluoro-4-phenoxy-phenyl)pyrazolo[3,4-d]pyrimidin-1-yl]piperidine-1-carbonyl]-4-methyl-4-[4-(oxetan-3-yl)piperazin-1-yl]pent-2-enenitrile: HCl crystalline salt Form A]
- solubility as compared with amorphous form and Compound (I) Form B ([2]; Example 9, FIGS. 24A-C, water and buffers): significantly enhanced solubility
- pH [2]: 4.0
- pH ([3]; 50 mM Acetate, 0 hr): 4.5
- pH ([3]; 50 mM Acetate, 24 hr): 4.4

SMILES: CC(C)(C=C(C#N)C(=O)N1CCCC(n2nc(-c3ccc(Oc4ccccc4)cc3F)c3c(N)ncnc32)C1)N1CCN(C2COC2)CC1.O=C(O)/C=C\C(=O)O (centres unmarked) [Maleate, 2-[3-[4-amino-3-(2-fluoro-4-phenoxy-phenyl)pyrazolo[3,4-d]pyrimidin-1-yl]piperidine-1-carbonyl]-4-methyl-4-[4-(oxetan-3-yl)piperazin-1-yl]pent-2-enenitrile: maleate crystalline salt Form A]
- pH [2]: 3.5
- pH ([3]; 50 mM Acetate, 0 hr): 4.5
- pH ([3]; 50 mM Acetate, 24 hr): 4.0
- pH ([3]; 100 mM Acetate, 0 hr): 4.5
- pH ([3]; 100 mM Acetate, 24 hr): 4.5

SMILES: CC(C)(C=C(C#N)C(=O)N1CCCC(n2nc(-c3ccc(Oc4ccccc4)cc3F)c3c(N)ncnc32)C1)N1CCN(C2COC2)CC1 (centres unmarked) [Methyl paraben co-crystal, 2-[3-[4-amino-3-(2-fluoro-4-phenoxy-phenyl)pyrazolo[3,4-d]pyrimidin-1-yl]piperidine-1-carbonyl]-4-methyl-4-[4-(oxetan-3-yl)piperazin-1-yl]pent-2-enenitrile]
- solubility at 3 h ([5]; pH 4.5 buffer, 25 °C, pH 4.5, aqueous buffer, thermodynamic from solid, 3 hour, single sample): 0.98 mg/mL
- solubility at 1 h ([5]; pH 4.5 buffer, 25 °C, pH 4.5, aqueous buffer, thermodynamic from solid, pH 4.5 buffer, 1 hour, 25° C., single sample, read-out: Solubility): 0.65 mg/mL
- solubility at 1 h ([5]; pH 4.5 buffer, 25 °C, pH 4.5, aqueous buffer, thermodynamic from solid, pH 4.5 buffer, 1 hour, 25° C., read-out: Average Solubility): 0.65 mg/mL
- Solubility [5, 9]: 0.64 mg/mL
- pH [5, 9]: 4.6
- pH ([5]; pH 4.5 buffer, 3 hour, 25° C., single sample): 4.7 and 4.6
- pH ([5]; pH 4.5 buffer, 24 hour, 25° C., single sample): 4.7
- pH ([5]; pH 6.8 buffer, 1 hour, 25° C., single sample): 6.8
- pH ([5]; pH 6.8 buffer, 3 hour, 25° C., single sample): 6.8
- pH ([5]; pH 6.8 buffer, 24 hour, 25° C., single sample): 6.9 and 6.8
- XRPD pattern post-solubility analysis ([5]; solid form stability after solubility test): no change in the pattern
- water absorbed (hygroscopicity) ([6]; between 0 and 90% RH): 2.3 % w/w
- XRPD pattern after GVS analysis, static storage conditions, grinding and compression studies, and kinetic solubility analysis ([6]; solid form stability): remained the same XRPD pattern
- solid form after grinding (XRPD) [4]: retained its co-crystalline structure pattern with only a limited reduction in overall crystallinity
- solid form after drying and compression (XRPD) [7]: retained its co-crystalline structure pattern with only a limited reduction in overall crystallinity
- solid form after storage (XRPD) [8]: retained its crystalline structure

SMILES: CC(C)(C=C(C#N)C(=O)N1CCCC(n2nc(-c3ccc(Oc4ccccc4)cc3F)c3c(N)ncnc32)C1)N1CCN(C2COC2)CC1.O=C(O)C(=O)O (centres unmarked) [Oxalate salt, 2-[3-[4-amino-3-(2-fluoro-4-phenoxy-phenyl)pyrazolo[3,4-d]pyrimidin-1-yl]piperidine-1-carbonyl]-4-methyl-4-[4-(oxetan-3-yl)piperazin-1-yl]pent-2-enenitrile: oxalate crystalline salt hydrate Form A]
- pH [2]: 2.9
- pH ([3]; 50 mM Acetate, 0 hr): 4.5
- pH ([3]; 50 mM Acetate, 24 hr): 4.27
- pH ([3]; 100 mM Acetate, 0 hr): 4.5
- pH ([3]; 100 mM Acetate, 24 hr): 4.5

Source: patent publication US20250376471A1, “CRYSTALLINE FORMS OF 2-[3-[4-AMINO-3-(2-FLUORO-4-PHENOXY-PHENYL)PYRAZOLO[3,4-D]PYRIMIDIN-1-YL]PIPERIDINE-1-CARBONYL]-4-METHYL-4-[4-(OXETAN-3-YL)PIPERAZIN-1-YL]PENT-2-ENENITRILE” (Principia Biopharma Inc., priority 2022, published 2025)
